Assay results from patent US20230203081A1, “LINCOSAMIDE ANTIBIOTICS AND USES THEREOF” (President and Fellows of Harvard College, priority 2020, published 2023).
≈ marks a conversion by molar mass, not a printed value. Where two headings read alike, the source gives them in different places.

Key:
P. aeruginosa ATCC 27853 = test: MIC (broth microdilution or agar dilution, CLSI); assay type: cell-based
Summary of the method: (§1)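 MICs follow CLSI broth microdilution or agar dilution, testing typically 128-0.06 μg/mL compound at 2.5% final DMSO, in triplicate with clindamycin comparator. Non-anaerobic strains use CaMHB at a final inoculum of 5×10^5 CFU/mL; anaerobes like C. difficile and C. scindens use specialized procedures.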

P. aeruginosa ΔAmex OprM = test: MIC (broth microdilution or agar dilution, CLSI); assay type: cell-based
Summary of the method: as §1

E. faecalis ATCC 29212 = test: MIC (broth microdilution or agar dilution, CLSI); assay type: cell-based; settings: Enterococcus faecalis
Summary of the method: (§2)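 Isolates other than streptococci and anaerobes, which had their own procedures, were grown overnight at 35° C on tryptic soy agar with 5% sheep blood. Suspensions were then diluted to a final inoculum of 5×10^5 CFU/mL in broth microdilution wells.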

K. oxytoca Clinical = test: MIC (broth microdilution or agar dilution, CLSI); assay type: cell-based
Summary of the method: as §2

S. aureus hVISA = test: MIC (broth microdilution or agar dilution, CLSI); assay type: cell-based
Summary of the method: as §2

A. baumannii ATCC 19606 = test: MIC (broth microdilution or agar dilution, CLSI); assay type: cell-based
Summary of the method: as §2

HepG2 = test: Mitochondrial ToxGlo assay; assay type: cell-based, human
Experimental: Mammalian cell experiments: All compounds were dissolved in sterile DMSO to a stock concentration of 20 μM and aliquoted prior to freezing at −20° C. Aliquots were limited to a maximum of 3 freeze-thaw cycles. A549 (human pulmonary carcinoma; […]) cells were cultured in Dulbecco's Modified Eagle Medium (DMEM) supplemented with 10% fetal bovine serum. K562 (human chronic myelogenous leukemia; […]) cells were cultured in Iscove's Modification of DMEM (IMDM) media supplemented with 10% fetal bovine serum. HCT116 (human colorectal carcinoma; […]) cells were cultured in McCoy's 5a (Iwakata & Grace Modification) media supplemented with 10% fetal bovine serum. HepG2 (human hepatocellular carcinoma; […]) cells were cultured in Eagle's Minimum Essential Medium (EMEM) supplemented with 10% fetal bovine serum. All cell cultures were maintained in a 5% CO2 incubator at 37° C.
Mitochondrial toxicity assays were conducted using the Promega Mitochondrial ToxGlo assay, pursuant to the manufacturer's protocol.

E. faecalis VRE [1] = test: MIC (CLSI), third E. faecalis VRE line of Table 4; assay type: cell-based; settings: Enterococcus faecalis; E. faecalis VRE (Table 4, third VRE line); read-out: MIC
Experimental: (§3) Minimum inhibitory concentrations (MICs) were determined by broth microdilution method or agar dilution method following the Clinical and Laboratory Standards Institute guidelines. Standard bacterial strains were obtained from American Type Culture Collection (ATCC). Other bacterial strains were obtained from hospitals and commercial sources, so noted in Table 11. Before the start of the MIC experiment, standard and test compound stock solutions were prepared in dimethyl sulfoxide (DMSO, Aldrich D2650) at a stock concentration of 5,120 μg/mL. The compound concentration range typically employed for each experiment was 128-0.06 μg/mL (2.5% final DMSO concentration). Clindamycin was used as a comparator in all experiments and each experiment was performed in triplicate. Specialized procedures were employed for streptococcal and anaerobic strains. All other bacterial strains were sub-cultured on blood agar plates (tryptic soy agar with 5% sheep blood, Hardy Diagnostics) and incubated overnight at 35° C. Organisms were suspended in cation-adjusted Mueller-Hinton broth (CaMHB, BD 212322) and optical density was adjusted to 0.5 McFarland standard. Suspensions were further diluted to obtain a final inoculum of 5×10^5 CFU/mL for broth microdilution experiments.

C. difficile ATCC 700057 = test: MIC (broth microdilution or agar dilution, CLSI); assay type: cell-based
Summary of the method: as §1

E. faecium VRE = test: MIC (broth microdilution or agar dilution, CLSI); assay type: cell-based; settings: Enterococcus faecium; E. faecium VRE; read-out: MIC
Summary of the method: as §1

S. aureus MRSA = test: MIC (broth microdilution or agar dilution, CLSI); assay type: cell-based; settings: Staphylococcus aureus
Summary of the method: as §1

[2] = test system: E. coli MP-74 LptD mutant; test: MIC (broth microdilution or agar dilution, CLSI); assay type: cell-based; settings: Escherichia coli
Summary of the method: as §1

E. faecium Line R & VRE = test: MIC (broth microdilution or agar dilution, CLSI); assay type: cell-based; settings: Enterococcus faecium, read-out: MIC
Summary of the method: as §1

C. scindens ATCC 35704 = test: MIC (broth microdilution or agar dilution, CLSI); assay type: cell-based
Summary of the method: as §1

S. aureus cErmA = test: MIC (broth microdilution or agar dilution, CLSI); assay type: cell-based; settings: Staphylococcus aureus; S. aureus cErmA; read-out: MIC
Summary of the method: as §1

E. faecium Clinical VRE = test: MIC (broth microdilution or agar dilution, CLSI); assay type: cell-based; settings: Enterococcus faecium; E. faecium Clinical VRE; read-out: MIC
Summary of the method: as §1

B. fragilis ATCC 25285 = test: MIC (broth microdilution or agar dilution, CLSI); assay type: cell-based; settings: Bacteroides fragilis, read-out: MIC
Summary of the method: as §1

E. faecalis VRE [3] = test: MIC (CLSI), second E. faecalis VRE line of Table 4; assay type: cell-based; settings: Enterococcus faecalis; E. faecalis VRE (Table 4, second VRE line); read-out: MIC
Experimental: as §3

Escherichia coli c-ermB = test: MIC, clinically derived E. coli with acquired resistance; assay type: cell-based
Experimental: as §3

H. influenzae ATCC 49247 = test: MIC (broth microdilution or agar dilution, CLSI); assay type: cell-based
Summary of the method: as §2

E. coli strain SQ110DTC = test: MIC in LB medium against E. coli SQ110DTC and its FSA-513018b-resistant mutants (Table 14); assay type: cell-based; settings: Escherichia coli
[4] = ATCC29212, E. faecalis HAV#005, ATCC 29212, read-out: MIC
[5] = Staphylococcus aureus, S. aureus HAV#204, hVISA, read-out: MIC

C[C@H]1COc2c(N3CCN(C)CC3)c(F)cc3c(=O)c(C(=O)O)cn1c23 [Levofloxacin]
MIC (P. aeruginosa ATCC 27853; Pseudomonas aeruginosa, ATCC27853, P. aeruginosa HAV#009, ATCC 27853, read-out: MIC): 2 µg/mL (≈ 5.53 µM)
MIC (P. aeruginosa ΔAmex OprM; Pseudomonas aeruginosa): 0.125 µg/mL (≈ 0.346 µM)
MIC (E. faecalis ATCC 29212; [4]): 2 µg/mL (≈ 5.53 µM)
MIC (K. oxytoca Clinical; Klebsiella oxytoca, K. oxytoca HAV#450, Clinical, read-out: MIC): 0.5 µg/mL (≈ 1.38 µM)
MIC (S. aureus hVISA; [5]): 8 µg/mL (≈ 22.1 µM)
MIC (A. baumannii ATCC 19606; Acinetobacter baumannii, ATCC19606, A. baumanii HAV#010, ATCC 19606, read-out: MIC): 1 µg/mL (≈ 2.77 µM)

CSC1O[C@H]([C@H](NC(=O)[C@H]2NC[C@@H]3C[C@H](CC(C)C)CCO[C@H]32)[C@H](C)Cl)C(O)[C@@H](O)[C@H]1O (some centres unmarked) [FSA-513018b]
effect on membrane integrity (HepG2; HepG2, Mitochondrial ToxGlo): no effect
effect on mitochondrial function (HepG2; HepG2, Mitochondrial ToxGlo (ATP production)): no effect
MIC (E. faecalis VRE [1]): 1 µg/mL (≈ 2.02 µM)
MIC (C. difficile ATCC 700057; C. difficile HAV#011, ATCC 700057): 0.25 µg/mL (≈ 0.505 µM)
MIC (C. difficile ATCC 700057; Clostridioides difficile, ATCC700057, C. difficile ATCC 700057, read-out: MIC): 0.25 µg/mL (≈ 0.505 µM)
MIC (E. faecium VRE): 1 µg/mL (≈ 2.02 µM)
MIC (P. aeruginosa ATCC 27853; P. aeruginosa HAV#009, ATCC 27853): 128 µg/mL (≈ 259 µM)
MIC (P. aeruginosa ATCC 27853; Pseudomonas aeruginosa, ATCC27853, P. aeruginosa ATCC 27853, read-out: MIC): 128 µg/mL (≈ 259 µM)
MIC (S. aureus MRSA): 0.06 µg/mL (≈ 0.121 µM)
MIC [2]: 1 µg/mL (≈ 2.02 µM)
MIC (E. faecium Line R & VRE; E. faecium HAV#319, Line R & Vanco R): ≤ 0.06 µg/mL
MIC (E. faecium Line R & VRE; E. faecium Line R & VRE): 0.06 µg/mL (≈ 0.121 µM)
MIC (C. scindens ATCC 35704; C. scindens HAV#012, ATCC 35704): 0.125 µg/mL (≈ 0.252 µM)
MIC (C. scindens ATCC 35704; [Clostridium] scindens, ATCC35704, C. scindens ATCC 35704, read-out: MIC): 0.125 µg/mL (≈ 0.252 µM)
MIC (P. aeruginosa ΔAmex OprM; P. aeruginosa HAV#039, ΔAmex OprM): 4 µg/mL (≈ 8.08 µM)
MIC (P. aeruginosa ΔAmex OprM; Pseudomonas aeruginosa): 4 µg/mL (≈ 8.08 µM)
MIC (S. aureus cErmA): 4 µg/mL (≈ 8.08 µM)
MIC (E. faecium Clinical VRE): 1 µg/mL (≈ 2.02 µM)
MIC (B. fragilis ATCC 25285; ATCC25285, B. fragilis ATCC 25285): 0.5 µg/mL (≈ 1.01 µM)
MIC (B. fragilis ATCC 25285; ATCC25285, B. fragilis HAV#013, ATCC 25285): 0.5 µg/mL (≈ 1.01 µM)
MIC (E. faecalis VRE [3]): 1 µg/mL (≈ 2.02 µM)
MIC (Escherichia coli c-ermB; E. coli HAV#504, Clinical, cErmB): 8 µg/mL (≈ 16.2 µM)
MIC (Escherichia coli c-ermB; Escherichia coli): 8 µg/mL (≈ 16.2 µM)
MIC (E. faecalis ATCC 29212; ATCC29212, E. faecalis ATCC 29212, read-out: MIC): ≤ 0.06 µg/mL
MIC (E. faecalis ATCC 29212; [4]): 0.06 µg/mL (≈ 0.121 µM)
MIC (K. oxytoca Clinical; K. oxytoca HAV#450, Clinical): 8 µg/mL (≈ 16.2 µM)
MIC (K. oxytoca Clinical; Klebsiella oxytoca, K. oxytoca Clinical, read-out: MIC): 8 µg/mL (≈ 16.2 µM)
MIC (S. aureus hVISA; S. aureus HAV#204, hVISA): 1 µg/mL (≈ 2.02 µM)
MIC (S. aureus hVISA; Staphylococcus aureus, S. aureus hVISA, read-out: MIC): 1 µg/mL (≈ 2.02 µM)
MIC (A. baumannii ATCC 19606; A. baumanii HAV#010, ATCC 19606): 4 µg/mL (≈ 8.08 µM)
MIC (A. baumannii ATCC 19606; Acinetobacter baumannii, ATCC19606, A. baumannii ATCC 19606, read-out: MIC): 4 µg/mL (≈ 8.08 µM)
MIC (H. influenzae ATCC 49247; H. influenzae HAV#007, ATCC 49247): 1 µg/mL (≈ 2.02 µM)
MIC (H. influenzae ATCC 49247; Haemophilus influenzae, ATCC49247, H. influenzae ATCC 49247, read-out: MIC): 1 µg/mL (≈ 2.02 µM)
MIC (E. coli strain SQ110DTC; E. coli SQ110DTC, WT): 0.03 µg/mL (≈ 0.0606 µM)
MIC (E. coli strain SQ110DTC; clone SA-3R1, mutation 2058G, selection plate 1 μg/mL FSA-513018b): 4 µg/mL (≈ 8.08 µM)
MIC (E. coli strain SQ110DTC; clone SA-3R2, mutation 2059G, selection plate […] FSA-513018b): 2 µg/mL (≈ 4.04 µM)
MIC (E. coli strain SQ110DTC; clone SA-3R9, mutation 2058G, selection plate […] FSA-513018b): 4 µg/mL (≈ 8.08 µM)
MIC (E. coli strain SQ110DTC; clone SA-3R13, mutation 2059G, selection plate 1 μg/mL FSA-513018b): 2 µg/mL (≈ 4.04 µM)
MIC (E. coli strain SQ110DTC; read-out: MICs of resistant clones, SQ110DTC clones selected on agar containing FSA-513018b (A2058G or A2059G in 23S rRNA)): 2 to 4 µg/mL (≈ 4.04 to 8.08 µM)

CC(=O)NC[C@H]1CN(c2ccc(N3CCOCC3)c(F)c2)C(=O)O1 [Linezolid]
MIC (E. faecalis ATCC 29212; [4]): 2 µg/mL (≈ 5.93 µM)
MIC (S. aureus hVISA; [5]): 2 µg/mL (≈ 5.93 µM)

CN[C@H](CC(C)C)C(=O)N[C@H]1C(=O)N[C@@H](CC(N)=O)C(=O)N[C@H]2C(=O)N[C@H]3C(=O)N[C@H](C(=O)N[C@H](C(=O)O)c4cc(O)cc(O)c4-c4cc3ccc4O)[C@H](O)c3ccc(c(Cl)c3)Oc3cc2cc(c3O[C@@H]2O[C@H](CO)[C@@H](O)[C@H](O)[C@H]2O[C@H]2C[C@](C)(N)[C@H](O)[C@H](C)O2)Oc2ccc(cc2Cl)[C@H]1O [Vancomycin]
MIC (E. faecalis ATCC 29212; ATCC29212): 4 µg/mL (≈ 2.76 µM)
MIC (S. aureus hVISA; Staphylococcus aureus): 2 µg/mL (≈ 1.38 µM)
MIC (H. influenzae ATCC 49247; Haemophilus influenzae, ATCC49247): > 64 µg/mL
